# Source: the supplement of paper PMC11061612
# How the values were obtained:
# [1] = system: U-698-M; experiment: combination Emax (second highest fraction inhibited in the dose matrix, 72 h); higher = more inhibition; details: B-Cell Non-Hodgkin's Lymphoma
# Summary of the method: (§1)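 After 24 hours at 37°C and 5% CO2 in 1536-well plates, cells in DMEM/F12 or RPMI plus 10% FBS received two-drug dose matrices for 72 hours. Viability came from CellTiter-Glo 2.0 luminescence and was scaled as inhibition, anchored at 0 by vehicle wells and at 1 by blank wells. Combination Emax is taken as the second-highest inhibition in the matrix, and Bliss excess as the observed combination effect less EA + EB − EA·EB, with EA and EB the single-agent effects.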
# [2] = system: U-698-M; experiment: Bliss excess, mean over the matrix (fraction); higher = more synergy; details: U-[…], B-Cell Non-Hodgkin's Lymphoma
# Summary of the method: as §1
# [3] = first compound max 10 µM, partner max 10 µM, 7x7
# [4] = first compound max 1 µM, partner max 1 µM, 7x7
# [5] = first compound max 1 µM, partner max 10 µM, 7x7
# [6] = first compound max 0.001 µM, partner max 10 µM, 7x7
# [7] = first compound max 0.3 µM, partner max 1 µM, 7x7
# [8] = first compound max 0.3 µM, partner max 10 µM, 7x7
# [9] = first compound max 10 µM, partner max 0.3 µM, 7x7
# [10] = first compound max 10 µM, partner max 20 µM, 7x7
# 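Throughout, for Bliss excess, mean over the matrix: after 72 h of two-drug dosing.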
smiles,measurement,setting,value
CC(=O)c1c(C)c2cnc(Nc3ccc(N4CCNCC4)cn3)nc2n(C2CCCC2)c1=O [Palbociclib] + Cn1cnc2c(F)c(Nc3ccc(Br)cc3Cl)c(C(=O)NOCCO)cc21 [Selumetinib],combination Emax,[1]; [3],0.583
same,Bliss excess,[2]; [3],-0.0483
COc1cccc(OCCCN)c1-c1cc(Nc2cnc(C#N)cn2)n[nH]1 [Prexasertib] + C=CCn1c(=O)c2cnc(Nc3ccc(N4CCN(C)CC4)cc3)nc2n1-c1cccc(C(C)(C)O)n1 [AZD1775],combination Emax,"[1]; first compound max 1 µM, partner max 1 µM, may be a limit of the assay",1
same,Bliss excess,"[2]; first compound max 1 µM, partner max 1 µM",0.0762
COc1cccc(OCCCN)c1-c1cc(Nc2cnc(C#N)cn2)n[nH]1 [Prexasertib] + CCc1c2c(nc3ccc(O)cc13)-c1cc3c(c(=O)n1C2)COC(=O)[C@]3(O)CC [SN-38],combination Emax,"[1]; first compound max 1 µM, partner max 0.3 µM, 7x7, may be a limit of the assay",1
same,Bliss excess,"[2]; first compound max 1 µM, partner max 0.3 µM, 7x7",0.0237
COc1cccc(OCCCN)c1-c1cc(Nc2cnc(C#N)cn2)n[nH]1 [Prexasertib] + CN(C)CCCOc1ccc(-c2ccc3ncc4c(c3c2)n(C2CCOCC2)c(=O)n4C)cn1 [AZD0156],combination Emax,"[1]; first compound max 1 µM, partner max 1 µM, 7x7, may be a limit of the assay",1
same,Bliss excess,[2]; [4],0.0361
COc1cccc(OCCCN)c1-c1cc(Nc2cnc(C#N)cn2)n[nH]1 [Prexasertib] + C[C@@H]1COCCN1C2=NC(=NC(=C2)C3(CC3)[S@](=N)(=O)C)C4=C5C=CNC5=NC=C4 [AZD6738],combination Emax,[1]; [5],0.996
same,Bliss excess,[2]; [5],-0.0348
COc1cccc(OCCCN)c1-c1cc(Nc2cnc(C#N)cn2)n[nH]1 [Prexasertib] + Cc1cc2ncnn2cc1Nc1ncc2c(n1)n(C1CCOCC1)c(=O)n2C [AZD7648],combination Emax,[1]; [5],0.975
same,Bliss excess,[2]; [5],-0.0029
COc1cccc(OCCCN)c1-c1cc(Nc2cnc(C#N)cn2)n[nH]1 [Prexasertib] + O=C(c1cc(Cc2n[nH]c(=O)c3ccccc23)ccc1F)N1CCN(C(=O)C2CC2)CC1 [Olaparib],combination Emax,[1]; [5],0.953
same,Bliss excess,[2]; [5],-0.0433
COc1cc2c(cc1OCCCCCOc1cc3c(cc1OC)C(=O)N1C=C(C)C[C@H]1C=N3)N=C[C@@H]1CC(C)=CN1C2=O [SG3199] + O=C(c1cc(Cc2n[nH]c(=O)c3ccccc23)ccc1F)N1CCN(C(=O)C2CC2)CC1 [Olaparib],combination Emax,[1]; [6],0.0822
same,Bliss excess,[2]; [6],-0.0531
CCc1c2c(nc3ccc(O)cc13)-c1cc3c(c(=O)n1C2)COC(=O)[C@]3(O)CC [SN-38] + CN(C)CCCOc1ccc(-c2ccc3ncc4c(c3c2)n(C2CCOCC2)c(=O)n4C)cn1 [AZD0156],combination Emax,[1]; [7],0.908
same,Bliss excess,[2]; [7],0.0615
CCc1c2c(nc3ccc(O)cc13)-c1cc3c(c(=O)n1C2)COC(=O)[C@]3(O)CC [SN-38] + O=C(c1cc(Cc2n[nH]c(=O)c3ccccc23)ccc1F)N1CCN(C(=O)C2CC2)CC1 [Olaparib],combination Emax,[1]; [8],0.813
same,Bliss excess,[2]; [8],0.0095
N#Cc1cnc(Nc2cc(NC[C@H]3CNCCO3)c(C(F)(F)F)cn2)cn1 [SRA737] + C=CCn1c(=O)c2cnc(Nc3ccc(N4CCN(C)CC4)cc3)nc2n1-c1cccc(C(C)(C)O)n1 [AZD1775],combination Emax,"[1]; first compound max 10 µM, partner max 1 µM, may be a limit of the assay",1
same,Bliss excess,"[2]; first compound max 10 µM, partner max 1 µM",0.0975
N#Cc1cnc(Nc2cc(NC[C@H]3CNCCO3)c(C(F)(F)F)cn2)cn1 [SRA737] + CCc1c2c(nc3ccc(O)cc13)-c1cc3c(c(=O)n1C2)COC(=O)[C@]3(O)CC [SN-38],combination Emax,[1]; [9],0.963
same,Bliss excess,[2]; [9],-0.0229
N#Cc1cnc(Nc2cc(NC[C@H]3CNCCO3)c(C(F)(F)F)cn2)cn1 [SRA737] + Nc1ccn([C@@H]2O[C@H](CO)[C@@H](O)C2(F)F)c(=O)n1 [Gemcitabine],combination Emax,[1]; [9],0.916
same,Bliss excess,[2]; [9],0.111
N#Cc1cnc(Nc2cc(NC[C@H]3CNCCO3)c(C(F)(F)F)cn2)cn1 [SRA737] + O=c1[nH]cc(F)c(=O)[nH]1 [5-Fluorouracil],combination Emax,[1]; [10],0.798
same,Bliss excess,[2]; [10],-0.0673
C[C@@H](c1ccc2nccn2c1)n1nnc2ncc(-c3cnn(C)c3)nc21 [Savolitinib] + CC1(C)CCC(CN2CCN(c3ccc(C(=O)NS(=O)(=O)c4ccc(NCC5CCOCC5)c([N+](=O)[O-])c4)c(Oc4cnc5[nH]ccc5c4)c3)CC2)=C(c2ccc(Cl)cc2)C1 [Venetoclax],combination Emax,[1]; [4],0.191
same,Bliss excess,[2]; [4],-0.0313
C[C@@H](c1ccc2nccn2c1)n1nnc2ncc(-c3cnn(C)c3)nc21 [Savolitinib] + Cc1c2c(nn1C)CSCc1cc(n(C)n1)CSc1cc(c3ccccc3c1)OCCCc1c(C(=O)O)n(C)c3c-2c(Cl)ccc13 [AZD5991],combination Emax,[1]; [4],0.978
same,Bliss excess,[2]; [4],-0.0477
